Consider 18 compounds from US11117905B2, “Bisaryl heterocycles as NRF2 activators” (GLAXOSMITHKLINE INTELLECTUAL PROPERTY DEVELOPMENT LIMITED, priority 2016, dated 2021).

One may read the EC50 as the concentration that produces a half-maximal response.

A value given as a limit tells only on which side of the number the result lay.

This experiment relates to NQO1 specific enzyme activity in BEAS-2B cells (marker for NRF2 activation). Description: BEAS-2B NQO1 MTT Assay. The experiment is classed as cell-based. To be noted: Homo sapiens, BEAS-2B, 48 h, NQO1 specific activity induction, 48 hours with compound. The text has this:
NAD(P)H:quinone oxidoreductase 1 (NQO1), also called DT diaphorase, is a homodimeric FAD-containing enzyme that catalyzes obligatory NAD(P)H-dependent two-electron reductions of quinones and protects cells against the toxic and neoplastic effects of free radicals and reactive oxygen species arising from one-electron reductions. The transcription of NQO1 is finely regulated by NRF2, and thus NQO1 activity is a good marker for NRF2 activation. On day one, frozen BEAS-2B cells (ATCC) were thawed in a water bath, counted, and re-suspended at a concentration of 250,000 cells/mL. Fifty microliters of cells were plated in 384 well black clear-bottomed plates. Plates were incubated at 37° C., 5% CO2 overnight. On day two, plates were centrifuged and 50 nL of compound or controls were added to the cells. Plates were then incubated at 37° C., 5% CO2 for 48 hours. On day four, medium was aspirated from the plate and crude cell lysates were made by adding 13 uL of 1× Cell Signaling Technologies lysis buffer with 1 Complete, Mini, EDTA-free Protease Inhibitor Tablet (Roche) for each 10 mL of lysis buffer. After lysis plates were incubated for 20 minutes at room temperature. Two microliters of lysate were removed for use in Cell Titer Glo assay (Promega) and MTT cocktail was prepared (Prochaska et. al. 1998) for measurement of NQO1 activity. Fifty microliters of MTT cocktail is added to each well, plate is centrifuged, and analyzed on an Envision plate reader (Perkin Elmer) using Absorbance 570 nm label for 30 minutes. Product formation was measured kinetically and the pEC50 of NQO1 specific activity induction was calculated by plotting the change in absorbance (Delta OD/min) versus the log of compound concentration followed by 3-parameter fitting.
pEC50 is the negative log of the EC50.
EC50s<1 nM (+++++), EC50s 1 nM-10 nM (++++), EC50s 10 nM-100 nM (+++), EC50s 100 nM-1 uM (++), EC50s 1 uM-10 uM (+), EC50s>10 uM (−), or were not determined (ND).
On to `CCn1nnc2c(C)c([C@H](c3cc(CN4C[C@H](C)Cc5ccccc5S4(=O)=O)c(C)s3)C(C)(C)C(=O)O)ccc21` [Example 17, (S)-3-(1-Ethyl-4-methyl-1H-benzo[d][1,2,3]triazol-5-yl)-2,2-dimethyl-3-(5-methyl-4-(((R)-4-methyl-1,1-dioxido-4,5-dihydrobenzo[f][1,2]thiazepin-2(3H)-yl)methyl)thiophen-2-yl)propanoic Acid], for which the EC50 lay within 1 to 10 nM.
For the compound `CCn1nnc2c(C)c([C@H](c3cc(CN4C[C@@H](C)Cc5ccccc5S4(=O)=O)c(C)s3)C(C)(C)C(=O)O)ccc21` [Example 18, (S)-3-(1-Ethyl-4-methyl-1H-benzo[d][1,2,3]triazol-5-yl)-2,2-dimethyl-3-(5-methyl-4-(((S)-4-methyl-1,1-dioxido-4,5-dihydrobenzo[f][1,2]thiazepin-2(3H)-yl)methyl)thiophen-2-yl)propanoic Acid], the EC50 is less than 1 nM.
To `CCn1nnc2c(C)c([C@H](c3cc(CN4C[C@@H](C)Cc5ncccc5S4(=O)=O)c(C)s3)C(C)(C)C(=O)O)ccc21` [Example 19, (S)-3-(1-Ethyl-4-methyl-1H-benzo[d][1,2,3]triazol-5-yl)-2,2-dimethyl-3-(5-methyl-4-(((S)-4-methyl-1,1-dioxido-4,5-dihydropyrido[2,3-f][1,2]thiazepin-2(3H)-yl)methyl)thiophen-2-yl)propanoic Acid] belongs less than 1 nM; to `CC[C@@H]1CN(Cc2cc([C@H](CC(=O)O)c3ccc4c(nnn4CC)c3C)sc2Cl)S(=O)(=O)c2cnccc2O1` [Example 22, (R)-3-(5-chloro-4-(((R)-4-ethyl-1,1-dioxido-3,4-dihydro-2H-pyrido[4,3-b][1,4,5]oxathiazepin-2-yl)methyl)thiophen-2-yl)-3-(1-ethyl-4-methyl-1H-benzo[d][1,2,3]triazol-5-yl)propanoic Acid], 10 to 100 nM.
As for `CCn1nnc2c(C)c([C@@H](c3cc(CN4C[C@@H](C)Cc5ncccc5S4(=O)=O)n(C)n3)C(C)(C)C(=O)O)ccc21` [Example 23, (R)-3-(1-Ethyl-4-methyl-1H-benzo[d][1,2,3]triazol-5-yl)-2,2-dimethyl-3-(1-methyl-5-(((S)-4-methyl-1,1-dioxido-4,5-dihydropyrido[2,3-f][1,2]thiazepin-2(3H)-yl)methyl)-1H-pyrazol-3-yl)propanoic Acid], the EC50 is 1000 to 10000 nM.
To `CC[C@@H]1CN(Cc2cc([C@@H](CC(=O)O)c3ccc4c(nnn4CC)c3C)sc2C)S(=O)(=O)c2cccnc2O1` [Example 24, (S)-3-(4-(((R)-4-Ethyl-1,1-dioxido-3,4-dihydro-2H-pyrido[2,3-b][1,4,5]oxathiazepin-2-yl)methyl)-5-methylthiophen-2-yl)-3-(1-ethyl-4-methyl-1H-benzo[d][1,2,3]triazol-5-yl)propanoic Acid] belongs 100 to 1000 nM; to `CC[C@@H]1CN(Cc2nc([C@@H](c3ccc4c(nnn4CC)c3C)C(C)(C)C(=O)Nc3cccnc3)sc2C)S(=O)(=O)c2cccnc2O1` [Example 25, (S)-3-(4-(((R)-4-Ethyl-1,1-dioxido-3,4-dihydro-2H-pyrido[2,3-b][1,4,5]oxathiazepin-2-yl)methyl)-5-methylthiazol-2-yl)-3-(1-ethyl-4-methyl-1H-benzo[d][1,2,3]triazol-5-yl)-2,2-dimethyl-N-(pyridin-3-yl)propanamide], 100 to 1000 nM.
As for `CC[C@@H]1CN(Cc2nc([C@@H](c3ccc4c(nnn4CC)c3C)C(C)(C)C(=O)O)sc2C)S(=O)(=O)c2cccnc2O1` [Example 26, (S)-3-(4-(((R)-4-Ethyl-1,1-dioxido-3,4-dihydro-2H-pyrido[2,3-b][1,4,5]oxathiazepin-2-yl)methyl)-5-methylthiazol-2-yl)-3-(1-ethyl-4-methyl-1H-benzo[d][1,2,3]triazol-5-yl)-2,2-dimethylpropanoic Acid], the figure is 1 to 10 nM; as for `CC[C@@H]1CN(Cc2nc([C@@H](c3ccc4c(nnn4CC)c3C)C(C)(C)C(=O)O)sc2C)S(=O)(=O)c2cnccc2O1` [Example 27, (S)-3-(4-(((R)-4-Ethyl-1,1-dioxido-3,4-dihydro-2H-pyrido[4,3-b][1,4,5]oxathiazepin-2-yl)methyl)-5-methylthiazol-2-yl)-3-(1-ethyl-4-methyl-1H-benzo[d][1,2,3]triazol-5-yl)-2,2-dimethylpropanoic Acid], less than 1 nM.
As for `CC[C@@H]1CN(Cc2nc([C@@H](c3ccc4c(nnn4CC)c3C)C(C)(C)C(=O)Nc3cccnc3)sc2C)S(=O)(=O)c2cnccc2O1` [Example 28, (S)-3-(4-(((R)-4-Ethyl-1,1-dioxido-3,4-dihydro-2H-pyrido[4,3-b][1,4,5]oxathiazepin-2-yl)methyl)-5-methylthiazol-2-yl)-3-(1-ethyl-4-methyl-1H-benzo[d][1,2,3]triazol-5-yl)-2,2-dimethyl-N-(pyridin-3-yl)propanamide], the figure is 100 to 1000 nM; as for `CC[C@@H]1CN(Cc2nc([C@@H](c3ccc4c(nnn4CC)c3C)C(C)(C)C(=O)O)sc2C)S(=O)(=O)c2ncccc2O1` [Example 29, (S)-3-(4-(((R)-4-Ethyl-1,1-dioxido-3,4-dihydro-2H-pyrido[3,2-b][1,4,5]oxathiazepin-2-yl)methyl)-5-methylthiazol-2-yl)-3-(1-ethyl-4-methyl-1H-benzo[d][1,2,3]triazol-5-yl)-2,2-dimethylpropanoic Acid], 1 to 10 nM.
For the compound `CC[C@@H]1CN(Cc2nc([C@@H](c3ccc4c(nnn4CC)c3C)C(C)(C)C(=O)Nc3cccnc3)sc2C)S(=O)(=O)c2ncccc2O1` [Example 30, (S)-3-(4-(((R)-4-Ethyl-1,1-dioxido-3,4-dihydro-2H-pyrido[3,2-b][1,4,5]oxathiazepin-2-yl)methyl)-5-methylthiazol-2-yl)-3-(1-ethyl-4-methyl-1H-benzo[d][1,2,3]triazol-5-yl)-2,2-dimethyl-N-(pyridin-3-yl)propanamide], the EC50 is 100 to 1000 nM.
As for `CCn1nnc2c(C)c([C@H](c3cc(CN4C[C@@H](C)Cc5ncccc5S4(=O)=O)n(C)n3)C(C)(C)C(=O)O)ccc21` [Example 31, (S)-3-(1-Ethyl-4-methyl-1H-benzo[d][1,2,3]triazol-5-yl)-2,2-dimethyl-3-(1-methyl-5-(((S)-4-methyl-1,1-dioxido-4,5-dihydropyrido[2,3-f][1,2]thiazepin-2(3H)-yl)methyl)-1H-pyrazol-3-yl)propanoic Acid], the figure is 100 to 1000 nM.
As for `CCn1nnc2c(C)c([C@H](c3cc(CN4CCC[C@H](n5cccn5)C4)c(C)s3)C(C)(C)C(=O)O)ccc21` [Example 32, (S)-3-(4-(((S)-3-(1H-Pyrazol-1-yl)piperidin-1-yl)methyl)-5-methylthiophen-2-yl)-3-(1-ethyl-4-methyl-1H-benzo[d][1,2,3]triazol-5-yl)-2,2-dimethylpropanoic acid], the figure is 100 to 1000 nM; as for `CC[C@H]1Cc2ncccc2S(=O)(=O)N(Cc2nc([C@@H](c3ccc4c(nnn4CC)c3C)C(C)(C)C(=O)O)sc2C)C1` [Example 33, (S)-3-(4-(((S)-4-Ethyl-1,1-dioxido-4,5-dihydropyrido[2,3-f][1,2]thiazepin-2(3H)-yl)methyl)-5-methylthiazol-2-yl)-3-(1-ethyl-4-methyl-1H-benzo[d][1,2,3]triazol-5-yl)-2,2-dimethylpropanoic Acid], less than 1 nM.
As for `CC[C@H]1Cc2ncccc2S(=O)(=O)N(Cc2nc([C@@H](c3ccc4c(nnn4CC)c3C)C(C)(C)C(=O)Nc3cccnc3)sc2C)C1` [Example 34, (S)-3-(4-(((S)-4-Ethyl-1,1-dioxido-4,5-dihydropyrido[2,3-f][1,2]thiazepin-2(3H)-yl)methyl)-5-methylthiazol-2-yl)-3-(1-ethyl-4-methyl-1H-benzo[d][1,2,3]triazol-5-yl)-2,2-dimethyl-N-(pyridin-3-yl)propanamide], the figure is 100 to 1000 nM; as for `CC[C@@H]1CN(Cc2cc([C@H](c3ccc4c(nnn4CC)c3C)C(C)(C)C(=O)O)sc2Cl)S(=O)(=O)c2cnccc2O1` [Example 36, (R)-3-(5-Chloro-4-(((R)-4-ethyl-1,1-dioxido-3,4-dihydro-2H-pyrido[4,3-b][1,4,5]oxathiazepin-2-yl)methyl)thiophen-2-yl)-3-(1-ethyl-4-methyl-1H-benzo[d][1,2,3]triazol-5-yl)-2,2-dimethylpropanoic Acid], 100 to 1000 nM.
Regarding `CCn1nnc2c(C)c([C@@H](c3cc(CN4C[C@@H](C)Cc5ccc(C(F)(F)F)cc5S4(=O)=O)n(C)n3)C(C)(C)C(=O)O)ccc21` [Example 37, (R)-3-(1-Ethyl-4-methyl-1H-benzo[d][1,2,3]triazol-5-yl)-2,2-dimethyl-3-(1-methyl-5-(((S)-4-methyl-1,1-dioxido-8-(trifluoromethyl)-4,5-dihydrobenzo[f][1,2]thiazepin-2(3H)-yl)methyl)-1H-pyrazol-3-yl)propanoic Acid], the EC50 lay in the range of 100 to 1000 nM.
